Reference: patent US9758561B2 (priority 2014, dated 2017)
Like-named read-outs stand apart in the source and are kept apart here.

Experiments:
[1] = molecular target: T1, human GLP-1 receptor (Homo sapiens, UniProt P43220); test: cAMP response of HEK-293 cells stably expressing human GLP-1 receptor (HTRF); assay type: cell-based; settings: read-out: EC50 hGLP-1R
T1 construct: expressed in transfected cells; host or cells: HEK-293
Experimental: (§1) For preparation, cells were split into T175 culture flasks and grown overnight to near confluency in medium (DMEM/10% FBS). Medium was then removed and cells washed with PBS lacking calcium and magnesium, followed by proteinase treatment with accutase (Sigma-Aldrich cat. no. A6964). Detached cells were washed and resuspended in assay buffer (1×HBSS; 20 mM HEPES, 0.1% BSA, 2 mM IBMX) and cellular density determined. They were then diluted to 400000 cells/ml and 25 μl-aliquots dispensed into the wells of 96-well plates. For measurement, 25 μl of test compound in assay buffer was added to the wells, followed by incubation for 30 minutes at room temperature. […] Potencies of peptidic compounds at the GLP-1, glucagon and GIP receptors were determined by exposing cells expressing human glucagon receptor (hGlucagon R), human GIP receptor (hGIP-R) or human GLP-1 receptor (hGLP-1R) to the listed compounds at increasing concentrations and measuring the formed cAMP as described in Methods.

[2] = molecular target: T2, human GIP receptor (Homo sapiens, UniProt P48546); test: cAMP response of HEK-293 cells stably expressing human GIP receptor (HTRF); assay type: cell-based
T2 construct: expressed in transfected cells; host or cells: HEK-293
T2 sequence (P48546 22-466): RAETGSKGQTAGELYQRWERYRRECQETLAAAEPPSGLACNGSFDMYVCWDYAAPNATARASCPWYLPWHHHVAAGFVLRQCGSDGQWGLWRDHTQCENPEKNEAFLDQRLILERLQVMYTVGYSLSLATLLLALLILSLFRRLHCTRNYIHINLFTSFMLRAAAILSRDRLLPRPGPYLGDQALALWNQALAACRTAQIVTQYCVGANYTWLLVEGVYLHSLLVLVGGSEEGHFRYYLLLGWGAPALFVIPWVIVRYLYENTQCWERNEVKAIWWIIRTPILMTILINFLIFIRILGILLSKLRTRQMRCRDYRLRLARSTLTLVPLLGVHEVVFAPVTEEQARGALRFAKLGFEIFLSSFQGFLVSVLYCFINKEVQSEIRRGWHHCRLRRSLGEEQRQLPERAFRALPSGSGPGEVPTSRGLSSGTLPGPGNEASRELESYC
Experimental: as §1

[3] = Stability testing in solution, 7 days at 40° C. (HPLC-UV); assay type: physicochemical
Experimental: After that time course, the sample was centrifuged for 20 min at 4500 rpm and 0.2 μL of the supernatant were analysed with HPLC-UV.
For determination of the amount of the remaining peptide, the peak areas of the target compound at t0 and t7 were compared, resulting in “% remaining peptide”, following the equation % remaining peptide=[(peak area peptide t7)×100]/peak area peptide t0.
The stability is expressed as “% remaining peptide”.

[4] = molecular target: T3, human glucagon receptor (Homo sapiens, UniProt P47871); test: cAMP response of HEK-293 cells stably expressing human glucagon receptor (HTRF); assay type: cell-based; settings: read-out: EC50 hGlucagon-R
T3 construct: expressed in transfected cells; host or cells: HEK-293
Experimental: as §1

[5] = Solubility testing in buffer (HPLC-UV); assay type: physicochemical
Experimental: Prior to the testing of solubility and stability of a peptide batch, its purity (HPLC-UV) was determined. […] Therefore, solutions from solid samples were prepared in different buffer systems with a concentration of 10 mg/mL compound based on the previously determined % purity. HPLC-UV was performed after 2 h of gentle agitation from the supernatant, which was obtained by 20 min of centrifugation at 4500 rpm. […] This analysis also served as starting point (t0) for the stability testing.

[6] = Table 7, comparison of residue in position 14

T1 sequence (P43220 24-463): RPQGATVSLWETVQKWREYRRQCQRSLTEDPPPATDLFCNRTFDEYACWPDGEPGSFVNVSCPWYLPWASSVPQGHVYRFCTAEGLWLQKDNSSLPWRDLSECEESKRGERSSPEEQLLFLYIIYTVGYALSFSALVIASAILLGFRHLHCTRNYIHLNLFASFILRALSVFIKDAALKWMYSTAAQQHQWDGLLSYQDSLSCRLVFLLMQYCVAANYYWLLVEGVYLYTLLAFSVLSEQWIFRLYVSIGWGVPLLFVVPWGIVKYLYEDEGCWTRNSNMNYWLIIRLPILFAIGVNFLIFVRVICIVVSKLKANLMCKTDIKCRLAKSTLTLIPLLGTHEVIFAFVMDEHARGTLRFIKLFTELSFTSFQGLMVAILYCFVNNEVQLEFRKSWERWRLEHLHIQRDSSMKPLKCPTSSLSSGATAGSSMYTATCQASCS
T3 sequence (P47871 26-477): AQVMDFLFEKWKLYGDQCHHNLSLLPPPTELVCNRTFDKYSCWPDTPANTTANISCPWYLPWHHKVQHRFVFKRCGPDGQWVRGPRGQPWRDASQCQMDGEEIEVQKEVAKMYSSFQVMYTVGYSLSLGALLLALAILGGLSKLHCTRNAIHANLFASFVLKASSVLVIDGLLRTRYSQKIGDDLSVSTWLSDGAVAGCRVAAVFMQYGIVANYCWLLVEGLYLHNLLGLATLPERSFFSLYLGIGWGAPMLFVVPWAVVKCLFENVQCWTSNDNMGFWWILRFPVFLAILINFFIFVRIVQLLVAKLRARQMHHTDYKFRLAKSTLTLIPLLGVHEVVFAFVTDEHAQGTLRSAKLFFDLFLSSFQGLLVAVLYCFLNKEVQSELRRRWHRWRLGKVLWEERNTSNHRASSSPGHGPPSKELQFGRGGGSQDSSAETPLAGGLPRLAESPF

| SMILES | EC50 ([1]; Table 6) [pM] | EC50 ([2]; Table 6, read-out: EC50 hGIP-R) [pM] | Stability pH 4.5 ([3]; pH 4.5, 7 days at 40° C. in solution) [% remaining peptide] | Stability pH 7.4 ([3]; pH 7.4, 7 days at 40° C. in solution) [% remaining peptide] | EC50 ([4]; Table 6) [pM] | solubility at 2 h ([5]; pH 4.5, target concentration 10 mg/ml, read-out: solubility pH 4.5) [µg/mL] | solubility at 2 h ([5]; pH 7.4, target concentration 10 mg/ml, read-out: solubility pH 7.4) [µg/mL] | EC50 [1, 6] [pM] | EC50 ([2]; Table 7, comparison of residue in position 14, read-out: EC50 hGIP-1) [pM] | EC50 [4, 6] [pM] |
| --- | --- | --- | --- | --- | --- | --- | --- | --- | --- | --- |
| CCCCCCCCCCCCCCCC(=O)N[C@@H](CCC(=O)NCCCC[C@H](NC(=O)[C@H](CCC(N)=O)NC(=O)[C@H](CCCCN)NC(=O)[C@H](CO)NC(=O)[C@H](CC(C)C)NC(=O)[C@H](CC(=O)O)NC(=O)[C@H](CO)NC(=O)[C@@H](NC(=O)[C@H](Cc1ccccc1)NC(=O)[C@@H](NC(=O)CNC(=O)[C@H](CCC(N)=O)NC(=O)[C@@H](CO)NC(=O)[C@@H](N)Cc1c[nH]cn1)[C@@H](C)O)[C@@H](C)O)C(=O)N[C@@H](CC(=O)O)C(=O)N[C@@H](CCC(=O)O)C(=O)N[C@@H](CCC(=O)O)C(=O)N[C@@H](C)C(=O)N[C@@H](C)C(=O)N[C@@H](CCCNC(=N)N)C(=O)N[C@@H](CC(C)C)C(=O)N[C@@H](Cc1ccccc1)C(=O)N[C@H](C(=O)N[C@@H](CCC(=O)O)C(=O)N[C@@H](Cc1c[nH]c2ccccc12)C(=O)N[C@@H](CC(C)C)C(=O)NC(C)(C)C(=O)N[C@@H](C)C(=O)NCC(=O)NCC(=O)N1CCC[C@H]1C(=O)N[C@@H](CO)C(=O)N[C@@H](CO)C(=O)NCC(=O)N[C@@H](C)C(=O)N1CCC[C@H]1C(=O)N1CCC[C@H]1C(=O)N1CCC[C@H]1C(=O)N[C@@H](CO)C(N)=O)[C@@H](C)CC)C(=O)O [SEQ ID NO: 14, H-dSer-Q-G-T-F-T-S-D-L-S-K-Q-K(γE-x53)-D-E-E-A-A-R-L-F-I-E-W-L-Aib-A-G-G-P-S-S-G-A-P-P-P-S-NH2] | 2.1 | 5360 | 94.7 | 96.3 | 24.7 | > 8000 | > 8000 | – | – | – |
| CCCCCCCCCCCCCCCC(=O)N[C@@H](CCC(=O)N[C@@H](CCC(=O)NCCCC[C@H](NC(=O)[C@H](CCC(N)=O)NC(=O)[C@H](CCCCN)NC(=O)[C@H](CO)NC(=O)[C@H](CC(C)C)NC(=O)[C@H](CC(=O)O)NC(=O)[C@H](CO)NC(=O)[C@@H](NC(=O)[C@H](Cc1ccccc1)NC(=O)[C@@H](NC(=O)CNC(=O)[C@H](CCC(N)=O)NC(=O)[C@@H](CO)NC(=O)[C@@H](N)Cc1c[nH]cn1)[C@@H](C)O)[C@@H](C)O)C(=O)N[C@@H](CC(=O)O)C(=O)N[C@@H](CCC(=O)O)C(=O)N[C@@H](CCC(=O)O)C(=O)N[C@@H](C)C(=O)N[C@@H](C)C(=O)N[C@@H](CCCNC(=N)N)C(=O)N[C@@H](CC(C)C)C(=O)N[C@@H](Cc1ccccc1)C(=O)N[C@H](C(=O)N[C@@H](CCC(=O)O)C(=O)N[C@@H](Cc1c[nH]c2ccccc12)C(=O)N[C@@H](CC(C)C)C(=O)N[C@@H](CCCCN)C(=O)N[C@@H](C)C(=O)NCC(=O)NCC(=O)N1CCC[C@H]1C(=O)N[C@@H](CO)C(=O)N[C@@H](CO)C(=O)NCC(=O)N[C@@H](C)C(=O)N1CCC[C@H]1C(=O)N1CCC[C@H]1C(=O)N1CCC[C@H]1C(=O)N[C@@H](CO)C(N)=O)[C@@H](C)CC)C(=O)O)C(=O)O [SEQ ID NO: 32, H-dSer-Q-G-T-F-T-S-D-L-S-K-Q-K(γE-γE-x53)-DEEAARLFIEWLKAGGPSSGAPPPS-NH2, reference compound] | – | – | – | – | – | – | – | 1.9 | 565 | 5.5 |
| CCCCCCCCCCCCCCCCCC(=O)N[C@@H](CCC(=O)NCCCC[C@H](NC(=O)[C@H](CCC(N)=O)NC(=O)[C@H](CCCCN)NC(=O)[C@H](CO)NC(=O)[C@H](CC(C)C)NC(=O)[C@H](CC(=O)O)NC(=O)[C@H](CO)NC(=O)[C@@H](NC(=O)[C@H](Cc1ccccc1)NC(=O)[C@@H](NC(=O)CNC(=O)[C@H](CCC(N)=O)NC(=O)[C@@H](CO)NC(=O)[C@@H](N)Cc1c[nH]cn1)[C@@H](C)O)[C@@H](C)O)C(=O)N[C@@H](CC(=O)O)C(=O)N[C@@H](CCC(=O)O)C(=O)N[C@@H](CCC(=O)O)C(=O)N[C@@H](C)C(=O)N[C@@H](C)C(=O)N[C@@H](CCCNC(=N)N)C(=O)N[C@@H](CC(C)C)C(=O)N[C@@H](Cc1ccccc1)C(=O)N[C@H](C(=O)N[C@@H](CCC(=O)O)C(=O)N[C@@H](Cc1c[nH]c2ccccc12)C(=O)N[C@@H](CC(C)C)C(=O)NC(C)(C)C(=O)N[C@@H](C)C(=O)NCC(=O)NCC(=O)N1CCC[C@H]1C(=O)N[C@@H](CO)C(=O)N[C@@H](CO)C(=O)NCC(=O)N[C@@H](C)C(=O)N1CCC[C@H]1C(=O)N1CCC[C@H]1C(=O)N1CCC[C@H]1C(=O)N[C@@H](CO)C(N)=O)[C@@H](C)CC)C(=O)O [SEQ ID NO: 13, H-dSer-Q-G-T-F-T-S-D-L-S-K-Q-K(γE-x70)-D-E-E-A-A-R-L-F-I-E-W-L-Aib-A-G-G-P-S-S-G-A-P-P-P-S-NH2] | 2.7 | 2540 | – | – | 6.8 | – | – | – | – | – |
| CCCCCCCCCCCCCCCC(=O)N[C@@H](CCC(=O)N[C@@H](CCC(=O)NCCCC[C@H](NC(=O)[C@H](CCC(N)=O)NC(=O)[C@H](CCCCN)NC(=O)[C@H](CO)NC(=O)[C@H](CC(C)C)NC(=O)[C@H](CC(=O)O)NC(=O)[C@H](CO)NC(=O)[C@@H](NC(=O)[C@H](Cc1ccccc1)NC(=O)[C@@H](NC(=O)CNC(=O)[C@H](CCC(N)=O)NC(=O)[C@H](CO)NC(=O)[C@@H](N)Cc1c[nH]cn1)[C@@H](C)O)[C@@H](C)O)C(=O)N[C@@H](CC(=O)O)C(=O)N[C@@H](CCC(=O)O)C(=O)N[C@@H](CCC(=O)O)C(=O)N[C@@H](C)C(=O)N[C@@H](C)C(=O)N[C@@H](CCCNC(=N)N)C(=O)N[C@@H](CC(C)C)C(=O)N[C@@H](Cc1ccccc1)C(=O)N[C@H](C(=O)N[C@@H](CCC(=O)O)C(=O)N[C@@H](Cc1c[nH]c2ccccc12)C(=O)N[C@@H](CC(C)C)C(=O)NC(C)(C)C(=O)N[C@@H](C)C(=O)NCC(=O)NCC(=O)N1CCC[C@H]1C(=O)N[C@@H](CO)C(=O)N[C@@H](CO)C(=O)NCC(=O)N[C@@H](C)C(=O)N1CCC[C@H]1C(=O)N1CCC[C@H]1C(=O)N1CCC[C@H]1C(=O)N[C@@H](CO)C(N)=O)[C@@H](C)CC)C(=O)O)C(=O)O [SEQ ID NO: 11, H-S-Q-G-T-F-T-S-D-L-S-K-Q-K(γE-γE-x53)-D-E-E-A-A-R-L-F-I-E-W-L-Aib-A-G-G-P-S-S-G-A-P-P-P-S-NH2] | 1.2 | 560 | – | – | 5.1 | – | – | – | – | – |
| CCCCCCCCCCCCCCCC(=O)N[C@@H](CCC(=O)N[C@@H](CCC(=O)NCCCC[C@H](NC(=O)[C@H](CCC(N)=O)NC(=O)[C@H](CCCCN)NC(=O)[C@H](CO)NC(=O)[C@H](CC(C)C)NC(=O)[C@H](CC(=O)O)NC(=O)[C@H](CO)NC(=O)[C@@H](NC(=O)[C@H](Cc1ccccc1)NC(=O)[C@@H](NC(=O)CNC(=O)[C@H](CCC(N)=O)NC(=O)[C@@H](CO)NC(=O)[C@@H](N)Cc1c[nH]cn1)[C@@H](C)O)[C@@H](C)O)C(=O)N[C@@H](CCC(=O)O)C(=O)N[C@@H](CCC(=O)O)C(=O)N[C@@H](CCC(=O)O)C(=O)N[C@@H](C)C(=O)N[C@@H](C)C(=O)N[C@@H](CCCNC(=N)N)C(=O)N[C@@H](CC(C)C)C(=O)N[C@@H](Cc1ccccc1)C(=O)N[C@H](C(=O)N[C@@H](CCC(=O)O)C(=O)N[C@@H](Cc1c[nH]c2ccccc12)C(=O)N[C@@H](CC(C)C)C(=O)NC(C)(C)C(=O)N[C@@H](C)C(=O)NCC(=O)NCC(=O)N1CCC[C@H]1C(=O)N[C@@H](CO)C(=O)N[C@@H](CO)C(=O)NCC(=O)N[C@@H](C)C(=O)N1CCC[C@H]1C(=O)N1CCC[C@H]1C(=O)N1CCC[C@H]1C(=O)N[C@@H](CO)C(N)=O)[C@@H](C)CC)C(=O)O)C(=O)O [SEQ ID NO: 16, H-dSer-Q-G-T-F-T-S-D-L-S-K-Q-K(γE-γE-x53)-E-E-E-A-A-R-L-F-I-E-W-L-Aib-A-G-G-P-S-S-G-A-P-P-P-S-NH2] | 1.8 | 7780 | – | – | 35.4 | – | – | – | – | – |
